Source: ChEMBL document CHEMBL1201862, “PubChem BioAssay data set” (2004)
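Tested at 5 concentrations; 48 h exposure; 96-well plates; endpoints linearly interpolated, else capped at highest concentration. GI50 marks 50% less growth.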 The source made the active and inactive calls. No stated cut-off is given here; in the data, active = GI50 up to about 1.1 µM and inactive = higher.

What was measured:
Test in all cases: inhibition of tumour cell growth, NCI panel, 48 h
[1] = system: 786-0
[2] = system: A498
[3] = system: A549
[4] = system: ACHN
[5] = system: CAKI-1
[6] = system: CCRF-CEM
[7] = system: COLO 205
[8] = system: DU-145
[9] = system: EKVX
[10] = system: HCC 2998
[11] = system: HCT-116
[12] = system: HCT-15
[13] = system: HL-60
[14] = system: HOP-62
[15] = system: HOP-92
[16] = system: HT-29
[17] = system: Hs-578T
[18] = system: IGROV-1
[19] = system: K562
[20] = system: KM12
[21] = system: LOX IMVI
[22] = system: M14
[23] = system: MCF7
[24] = system: MDA-MB-231
[25] = system: MDA-MB-435
[26] = system: MOLT-4
[27] = system: Malme-3M
[28] = system: NCI-H226
[29] = system: NCI-H23
[30] = system: NCI-H460
[31] = system: NCI-H522
[32] = system: NCI/ADR-RES
[33] = system: OVCAR-3
[34] = system: OVCAR-4
[35] = system: OVCAR-5
[36] = system: OVCAR-8
[37] = system: PC-3
[38] = system: RPMI-8226
[39] = system: RXF 393
[40] = system: SF-268
[41] = system: SF-295
[42] = system: SF-539
[43] = system: SK-MEL-28
[44] = system: SK-MEL-2
[45] = system: SK-MEL-5
[46] = system: SN12C
[47] = system: SNB-19
[48] = system: SNB-75
[49] = system: SR
[50] = system: SW-620
[51] = system: T47D
[52] = system: TK-10
[53] = system: U-251
[54] = system: UACC-257
[55] = system: UACC-62
[56] = system: UO-31
[57] = system: MDA-N
[58] = system: SK-OV-3

Measured: GI50

Cc1ccc(NC(=O)CSC(N)=O)cc1C
> 100 µM: [12]
inactive: [1] 48.2 µM | [2] 98.4 µM | [3] > 100 µM | [4] > 100 µM | [5] > 100 µM | [6] > 100 µM | [7] > 100 µM | [8] > 100 µM | [9] > 100 µM | [10] > 100 µM | [11] > 100 µM | [13] > 100 µM | [14] > 100 µM | [15] > 100 µM | [16] > 100 µM | [17] > 100 µM | [18] > 100 µM | [19] > 100 µM | [20] > 100 µM | [21] 37.9 µM | [22] 40.8 µM | [23] 31 µM | [24] > 100 µM | [25] > 100 µM | [26] 30.8 µM | [27] > 100 µM | [28] > 100 µM | [29] > 100 µM | [30] > 100 µM | [31] 89.9 µM | [32] > 100 µM | [33] > 100 µM | [34] > 100 µM | [35] > 100 µM | [36] > 100 µM | [37] > 100 µM | [38] 29.3 µM | [39] > 100 µM | [40] > 100 µM | [41] > 100 µM | [42] 43.4 µM | [43] > 100 µM | [44] > 100 µM | [45] > 100 µM | [46] > 100 µM | [47] > 100 µM | [48] > 100 µM | [49] 34.7 µM | [50] > 100 µM | [51] > 100 µM | [52] > 100 µM | [53] > 100 µM | [54] > 100 µM | [55] 93.8 µM | [56] > 100 µM

COc1ccc(Nc2nc3cc(N)cc(N)c3nc2-c2ccccc2)cc1
inactive: [16] 20.3 µM | [54] 14.4 µM

COc1cc(C2c3cc4c(cc3[C@@H](Nc3ccccc3)C3COC[C@H]23)OCO4)cc(OC)c1O (stereo not given in full)
inactive: [7] 3.28 µM | [9] 15.4 µM | [10] 5.83 µM | [11] 1.41 µM | [14] 1.48 µM | [16] 3.06 µM | [18] 8.34 µM | [19] 1.8 µM | [20] 2.84 µM | [22] 2.59 µM | [24] 1.64 µM | [25] 7.13 µM | [57] 7.35 µM | [31] 2.2 µM | [32] 10.9 µM | [34] 16.9 µM | [35] 2.36 µM | [36] 2.82 µM | [37] 3.33 µM | [40] 3.03 µM | [42] 1.26 µM | [43] 5.77 µM | [45] 2.3 µM | [58] 2.92 µM | [46] 1.9 µM | [47] 1.69 µM | [48] 2.23 µM | [50] 1.81 µM | [51] 1.19 µM | [52] 7.46 µM | [54] 14.6 µM | [56] 1.15 µM
1.12 µM: [12]
active: [1] 1.1 µM | [3] 0.35 µM | [4] 0.483 µM | [6] 0.235 µM | [13] 0.573 µM | [17] 0.736 µM | [23] 0.512 µM | [26] 0.0665 µM | [30] 0.148 µM | [38] 0.631 µM | [41] 0.485 µM | [49] 0.465 µM | [53] 0.897 µM

CS(=O)(=O)OCC1CCCCCCCCCCC12SCCCS2 (stereo not given)
inactive: [1] > 100 µM | [2] > 100 µM | [3] > 100 µM | [4] > 100 µM | [5] > 100 µM | [6] > 100 µM | [7] > 100 µM | [8] > 100 µM | [9] > 100 µM | [10] > 100 µM | [11] > 100 µM | [13] > 100 µM | [14] > 100 µM | [15] > 100 µM | [16] > 100 µM | [17] > 100 µM | [18] > 100 µM | [19] > 100 µM | [20] > 100 µM | [21] > 100 µM | [22] > 100 µM | [23] > 100 µM | [24] > 100 µM | [25] > 100 µM | [57] > 100 µM | [26] > 100 µM | [27] > 100 µM | [28] > 100 µM | [29] > 100 µM | [30] > 100 µM | [31] > 100 µM | [32] > 100 µM | [33] > 100 µM | [34] > 100 µM | [35] > 100 µM | [36] > 100 µM | [37] > 100 µM | [39] > 100 µM | [40] > 100 µM | [41] > 100 µM | [42] > 100 µM | [43] > 100 µM | [44] > 100 µM | [45] > 100 µM | [58] > 100 µM | [46] > 100 µM | [47] > 100 µM | [49] > 100 µM | [50] > 100 µM | [51] > 100 µM | [52] > 100 µM | [53] > 100 µM | [54] > 100 µM | [55] > 100 µM | [56] > 100 µM
> 100 µM: [12]
